In US4568693A, “N-Naphthoylglycine derivatives” (Ayerst, McKenna & Harrison, Inc., priority 1981, dated 1986):

Assays:
[1] = tested on: aldose reductase; details: literature; cited from earlier work
[2] = tested on: accumulation of dulcitol in the lenses; assay: galactosemic rats, dulcitol accumulation in the lens; type: in vivo, rat (Sprague-Dawley); details: 4 days, vs untreated galactosemic rats
Excerpt: The aldose reductase inhibiting property of the compounds of this invention and the utilization of the compounds in preventing, diminishing and alleviating diabetic complications are demonstrable in experiments using galactosemic rats, see Dvornik et al., cited above. Such experiments are exemplified hereinbelow after the listing of the following general comments pertaining to these experiments:
(a) Four or more groups of six male rats, 50-70 g, Sprague-Dawley strain, were used. The first group, the control group, was fed a mixture of laboratory chow (rodent laboratory chow, Purina) and glucose at 20% (w/w %) concentration. The untreated galactosemic group was fed a similar diet in which galactose is substituted for glucose. The third group was fed a diet prepared by mixing a given amount of the test compound with the galactose containing diet. The concentration of galactose in the diet of the treated groups was the same as that for the untreated galactosemic group.
(b) After four days, the animals were killed by decapitation. The eyeballs were removed and punctured with a razor blade; the freed lenses were rolled gently on filter paper and weighed. The sciatic nerves were dissected as completely as possible and weighed. Both tissues were frozen and can be kept up to two weeks before being analyzed for dulcitol.
(c) The polyol determination was performed by a modification of the procedure of M. Kraml and L. Cosyns, Clin. Biochem., 2, 373 (1969). Only two minor reagent changes were made: (a) The rinsing mixture was an aqueous 5% (w/v) trichloroacetic acid solution and (b) the stock solution was prepared by dissolving 25 mg of dulcitol in 100 ml of an aqueous trichloroacetic acid solution. [N.B.: For each experiment the average value found in the tissue from rats fed the glucose diet was subtracted from the individual values found in the corresponding rat tissue to obtain the amount of polyol accumulated].
The figures under L and N represent the percentage decrease of dulcitol accumulation in the tissues of the lens and sciatic nerve, respectively, for treated rats as compared to untreated rats.

[3] = target: T1, aldose reductase (Bos taurus, UniProt P16116); assay: in vitro aldose reductase inhibition (modified Hayman and Kinoshita procedure); type: biochemical, bovine; details: for inhibition at 10 µM: 10^-5 molar, read-out: % Inhibition at Different Molar Concentration (in vitro), 10^-5; for inhibition at 1 µM: 10^-6 molar, read-out: % Inhibition at Different Molar Concentration (in vitro), 10^-6; for inhibition at 0.1 µM: 10^-7 molar, read-out: % Inhibition at Different Molar Concentration (in vitro), 10^-7
T1 construct: the preparation of the enzyme from bovine lens; from tissue; host or cells: bovine lens
Excerpt: In the present case the procedure of Hayman and Kinoshita is modified in that the final chromatography step is omitted in the preparation of the enzyme from bovine lens.

For O=C(O)CN1C(=O)c2cccc3cccc(c23)C1=O [1,3-Dioxo-1H-benz[de]isoquinoline-2(3H)-acetic acid], the “inhibition of aldose reductase (result in words)” value [1] is given as “effective inhibitor of aldose reductase”.

In the case of COc1ccc2c(C(=S)N(C)CC(=O)O)ccc(OC)c2c1C(F)(F)F [CH3, H, 4-CH3 O, 5-CF3,6-CH3 O, N-[[4,6-dimethoxy-5-(trifluoromethyl)-1-naphthalenyl]thioxomethyl]-N-methylglycine], the “percentage decrease of dulcitol accumulation, lens (L)” value (“percentage decrease” for short) ([2]; 144 mg/kg/day in diet) is reported as 33%.

For COC(=O)CN(C)C(=S)c1cccc2c(C(F)(F)F)c(OC)ccc12 [Example 23, N-[[5-(trifluoromethyl)-6-methoxy-1-naphthalenyl]thioxomethyl]-N-methylglycine methyl ester], the inhibition at 10 µM [3] was 9% and the “percentage decrease” value ([2]; 11 mg/kg/day in diet) was 10%.

In the case of CN(CC(=O)O)C(=S)c1cccc2c(Br)cccc12 [Example 32, N-[(5-Bromo-1-naphthalenyl)thioxomethyl]-N-methylglycine], the inhibition at 10 µM [3] is reported as 93%, the inhibition at 1 µM [3] is reported as 87% and the inhibition at 0.1 µM [3] is reported as 47%. The “percentage decrease” value ([2]; 62 mg/kg/day in diet) was 14%, the “percentage decrease” value ([2]; 121 mg/kg/day in diet) was 20% and the “percentage decrease” value ([2]; 189 mg/kg/day in diet) was 24%.

For CN(CC(=O)O)C(=S)c1cccc2c(Cl)cccc12 [Example 40, N-[(5-chloro-1-naphthalenyl)thioxomethyl]-N-methylglycine], the inhibition at 10 µM [3] was 91%, the inhibition at 1 µM [3] was 83% and the inhibition at 0.1 µM [3] was 40%. The “percentage decrease” value ([2]; 156 mg/kg/day in diet) was 34%.

Work on COc1ccc2c(C(=S)N(C)CC(=O)O)cccc2c1Br [Example 41, N-[(5-bromo-6-methoxy-1-naphthalenyl)thioxomethyl]-N-methylglycine] yielded an inhibition at 10 µM [3] of 99%, an inhibition at 1 µM [3] of 91% and an inhibition at 0.1 µM [3] of 72%. The “percentage decrease” value ([2]; 162 mg/kg/day in diet) was 34%.

For COc1c(Cl)cc(C(=S)N(C)CC(=O)O)c2ccccc12 [Example 45, N-[(3-chloro-4-methoxy-1-naphthalenyl)thioxomethyl]-N-methylglycine], the inhibition at 10 µM [3] was 85%, the inhibition at 1 µM [3] was 78% and the inhibition at 0.1 µM [3] was 33%. For the same compound, the “percentage decrease” value ([2]; 163 mg/kg/day in diet) was 15%.

In the case of CN(CC(=O)O)C(=S)c1cccc2c(Cl)cc(Cl)cc12 [Example 46, N-[(5,7-dichloro-1-naphthalenyl)thioxomethyl]-N-methylglycine], the inhibition at 10 µM [3] is reported as 88%, the inhibition at 1 µM [3] is reported as 75% and the inhibition at 0.1 µM [3] is reported as 29%. The “percentage decrease” value ([2]; 52 mg/kg/day in diet) was 29%.

With COc1ccc2c(C(=S)N(C)CC(=O)O)cccc2c1C(F)(F)F [Example 52, N-[[5-(trifluoromethyl)-6-methoxy-1-naphthalenyl]thioxomethyl]-N-methylglycine] the “percentage decrease” value ([2]; 26 mg/kg/day in diet) was 15%.

For CN(CC(=O)O)C(=S)c1cccc2c(C(F)(F)F)cccc12 [Example 53b, N-[[(5-trifluoromethyl)-1-naphthalenyl]thioxomethyl]-N-methylglycine], the inhibition at 10 µM [3] was 93%, the inhibition at 1 µM [3] was 84% and the inhibition at 0.1 µM [3] was 33%. For the same compound, the “percentage decrease” value ([2]; 11 mg/kg/day in diet) was 2%.

In the case of O=C1NC(=O)[C@@]2(CCOc3ccc(F)cc32)N1 [sorbinil, (S)-6-Fluoro-2,3-dihydrospiro(4H-1-benzopyran-4,4'-imidazolidine)-2',5'-dione], the “inhibition of aldose reductase (result in words)” value [1] is given as “aldose reductase inhibiting properties”.
